From ChEMBL document CHEMBL4616581, “Current scenario of artemisinin and its analogues for antimalarial activity” (Eur J Med Chem, 2019)
Values after ≈ are worked out from the molar mass of the structure shown.

What was measured:
Assay type in all cases: functional, organism-based
Plasmodium falciparum [1] = assay: Antimalarial activity against Plasmodium falciparum D6
Plasmodium falciparum [2] = assay: Antimalarial activity against Plasmodium falciparum W2
Plasmodium falciparum [3] = assay: Antimalarial activity against Plasmodium falciparum NF54 after 48 hrs by spectrophotometric analysis; settings: NF54, 48 h
Plasmodium falciparum [4] = assay: Antimalarial activity against Plasmodium falciparum HB3
Plasmodium falciparum [5] = assay: Antimalarial activity against Plasmodium falciparum K1
Plasmodium falciparum [6] = assay: Antimalarial activity against Plasmodium falciparum W2 after 24 hrs by in presence of [3H]hypoxanthine
Plasmodium falciparum [7] = assay: Antimalarial activity against Plasmodium falciparum D6 after 24 hrs by in presence of [3H]hypoxanthine
Plasmodium falciparum [8] = assay: Antimalarial activity against Plasmodium falciparum K1 by [3H]-hypoxanthine incorporation assay
Plasmodium falciparum [9] = assay: Antimalarial activity against blood stages of chloroquine-resistant Plasmodium falciparum K1

## C[C@H]1[C@@H](CCO)O[C@@H]2O[C@]3(C)CC[C@H]4[C@H](C)CC[C@@H]1[C@@]24OO3
Plasmodium falciparum [1]
  IC50: 0.34 ng/mL (≈ 1.09 nM)
Plasmodium falciparum [2]
  IC50: 0.18 ng/mL

## CCC[C@H]1O[C@@H]2O[C@]3(C)CC[C@H]4[C@H](C)CC[C@@H]([C@H]1C)[C@@]24OO3
Plasmodium falciparum [1]
  IC50: 0.41 ng/mL (≈ 1.32 nM)
Plasmodium falciparum [2]
  IC50: 0.16 ng/mL

## C[C@@H]1CC[C@@H]2[C@]34OO[C@@](C)(CC[C@@H]13)O[C@H]4OC(O/C=C/c1ccccc1)[C@]2(C)O (stereo partly drawn)
Plasmodium falciparum [3]
  IC50: 0.106 µM

## C[C@H]1[C@@H](OCc2ccc(CN3CCCCC3)cc2)O[C@@H]2O[C@]3(C)CC[C@H]4[C@H](C)CC[C@@H]1[C@@]24OO3
Plasmodium falciparum [4]
  IC50: 0.0122 µM
Plasmodium falciparum [5]
  IC50: 0.0098 µM

## C[C@@H]1CC[C@@H]2[C@]34OO[C@@](C)(CC[C@@H]13)O[C@H]4OC(OCC1CC1)[C@]2(C)O (stereo partly drawn)
Plasmodium falciparum [3]
  IC50: 0.158 µM

## C[C@H]1[C@@H](O[C@@H](C)CC(=O)O)O[C@@H]2O[C@]3(C)CC[C@H]4[C@H](C)CC[C@@H]1[C@@]24OO3
Plasmodium falciparum [6]
  IC50: 7.43 ng/mL
Plasmodium falciparum [7]
  IC50: 15 ng/mL

## C[C@H]1[C@@H](OCc2ccc(CO)cc2)O[C@@H]2O[C@]3(C)CC[C@H]4[C@H](C)CC[C@@H]1[C@@]24OO3
Plasmodium falciparum [4]
  IC50: 0.0042 µM
Plasmodium falciparum [5]
  IC50: 0.0044 µM

## COC(=O)CC[C@@H](OC1O[C@@H]2O[C@]3(C)CC[C@H]4[C@H](C)CC[C@@H]([C@H]1C)[C@@]24OO3)c1ccc(F)cc1 (stereo partly drawn)
Plasmodium falciparum [1]
  IC50: 0.43 ng/mL (≈ 0.9 nM)
Plasmodium falciparum [2]
  IC50: 0.398 ng/mL

## CCNCCO[C@H]1O[C@@H]2O[C@]3(C)CC[C@H]4[C@H](C)CC[C@@H]([C@H]1C)[C@@]24OO3
Plasmodium falciparum [4]
  IC50: 0.0041 µM
Plasmodium falciparum [5]
  IC50: 0.0041 µM

## CC1CCC2C(CCCCCCC[C@]3(C[C@@H]4C(=O)O[C@@H]5O[C@]6(C)CC[C@H]7[C@H](C)CC[C@@H]4[C@@]57OO6)C(=O)O[C@@H]4O[C@]5(C)CC[C@H]6[C@H](C)CC[C@@H]3[C@@]46OO5)C(O)OC3OC4(C)CCC1C32OO4 (stereo partly drawn)
Plasmodium falciparum [8]
  EC50: 0.0031 µM

## CO[C@H]1O[C@@H]2C[C@]3(C)CC[C@H]4[C@H](C)CC[C@@H]([C@H]1C)[C@@]24OO3
Plasmodium falciparum [9]
  IC50: 0.301 ng/mL

## COC(=O)[C@@H](C)CO[C@H]1O[C@@H]2O[C@]3(C)CC[C@H]4[C@H](C)CC[C@@H]([C@H]1C)[C@@]24OO3
Plasmodium falciparum [6]
  IC50: 0.015 ng/mL
Plasmodium falciparum [7]
  IC50: 0.36 ng/mL

## COC(=O)C[C@H](C)O[C@H]1O[C@@H]2O[C@]3(C)CC[C@H]4[C@H](C)CC[C@@H]([C@H]1C)[C@@]24OO3
Plasmodium falciparum [6]
  IC50: 0.48 ng/mL
Plasmodium falciparum [7]
  IC50: 1.19 ng/mL

## C[C@@H]1CC[C@H]2[C@](C)(Br)[C@@H](Nc3ccccc3)O[C@@H]3O[C@]4(C)CC[C@@H]1[C@]32OO4
Plasmodium falciparum [1]
  IC50: 3.42 ng/mL (≈ 7.8 nM)
Plasmodium falciparum [2]
  IC50: 0.63 ng/mL

## CNCCO[C@H]1O[C@@H]2O[C@]3(C)CC[C@H]4[C@H](C)CC[C@@H]([C@H]1C)[C@@]24OO3
Plasmodium falciparum [4]
  IC50: 0.027 µM
Plasmodium falciparum [5]
  IC50: 0.024 µM

## C[C@@H]1CC[C@H]2[C@@H](C)C(CCCO)O[C@@H]3O[C@]4(C)CC[C@@H]1[C@]32OO4 (stereo partly drawn)
Plasmodium falciparum [1]
  IC50: 0.23 ng/mL (≈ 0.705 nM)
Plasmodium falciparum [2]
  IC50: 0.23 ng/mL

## C[C@H]1[C@@H](OCc2ccc(CN)cc2)O[C@@H]2O[C@]3(C)CC[C@H]4[C@H](C)CC[C@@H]1[C@@]24OO3
Plasmodium falciparum [4]
  IC50: 0.0031 µM
Plasmodium falciparum [5]
  IC50: 0.0014 µM

## C[C@@H]1CC[C@H]2[C@](C)(Br)[C@@H](Nc3ncccn3)O[C@@H]3O[C@]4(C)CC[C@@H]1[C@]32OO4
Plasmodium falciparum [1]
  IC50: 26 ng/mL (≈ 59 nM)
Plasmodium falciparum [2]
  IC50: 5.56 ng/mL

## C[C@H]1[C@@H](OCc2ccc(CN3CCOCC3)cc2)O[C@@H]2O[C@]3(C)CC[C@H]4[C@H](C)CC[C@@H]1[C@@]24OO3
Plasmodium falciparum [4]
  IC50: 0.05 µM
Plasmodium falciparum [5]
  IC50: 0.035 µM

## C[C@H]1[C@@H](OC2O[C@H](CO)[C@H](O)[C@H](O)[C@H]2O)O[C@@H]2O[C@]3(C)CC[C@H]4[C@H](C)CC[C@@H]1[C@@]24OO3 (stereo partly drawn)
Plasmodium falciparum [6]
  IC50: 35.6 ng/mL
Plasmodium falciparum [7]
  IC50: 13.1 ng/mL

## COC(=O)CC[C@H](OC1O[C@@H]2O[C@]3(C)CC[C@H]4[C@H](C)CC[C@@H]([C@H]1C)[C@@]24OO3)c1ccc(F)cc1 (stereo partly drawn)
Plasmodium falciparum [1]
  IC50: 0.616 ng/mL (≈ 1.29 nM)
Plasmodium falciparum [2]
  IC50: 0.488 ng/mL

## C[C@H]1[C@@H](OCCN2CCCC2)O[C@@H]2O[C@]3(C)CC[C@H]4[C@H](C)CC[C@@H]1[C@@]24OO3
Plasmodium falciparum [4]
  IC50: 0.023 µM
Plasmodium falciparum [5]
  IC50: 0.023 µM

## C[C@H]1[C@@H](OC[C@@H](C)C(=O)O)O[C@@H]2O[C@]3(C)CC[C@H]4[C@H](C)CC[C@@H]1[C@@]24OO3
Plasmodium falciparum [6]
  IC50: 5.34 ng/mL
Plasmodium falciparum [7]
  IC50: 22.2 ng/mL

## C[C@@H]1CC[C@H]2[C@@H](C)C(OC(=O)c3cccc([N+](=O)[O-])c3)O[C@@H]3O[C@]4(C)CC[C@@H]1[C@]32OO4 (stereo partly drawn)
Plasmodium falciparum [3]
  IC50: 0.0106 µM

## COC(=O)CC[C@H](OC1O[C@@H]2O[C@]3(C)CC[C@H]4[C@H](C)CC[C@@H]([C@H]1C)[C@@]24OO3)c1ccc(Cl)cc1 (stereo partly drawn)
Plasmodium falciparum [1]
  IC50: 0.903 ng/mL (≈ 1.82 nM)
Plasmodium falciparum [2]
  IC50: 0.794 ng/mL

## C[C@H]1[C@@H](OCc2ccc(C(=O)O)cc2)O[C@@H]2C[C@]3(C)CC[C@H]4[C@H](C)CC[C@@H]1[C@@]24OO3
Plasmodium falciparum [9]
  IC50: 1.38 ng/mL

## C[C@H]1[C@@H](OC2O[C@H](CO)[C@@H](O)[C@H](O)[C@H]2O)O[C@@H]2O[C@]3(C)CC[C@H]4[C@H](C)CC[C@@H]1[C@@]24OO3 (stereo partly drawn)
Plasmodium falciparum [6]
  IC50: 34.1 ng/mL
Plasmodium falciparum [7]
  IC50: 122 ng/mL

## COC(=O)CC[C@@H](OC1O[C@@H]2O[C@]3(C)CC[C@H]4[C@H](C)CC[C@@H]([C@H]1C)[C@@]24OO3)c1ccc(Cl)cc1 (stereo partly drawn)
Plasmodium falciparum [1]
  IC50: 0.727 ng/mL (≈ 1.47 nM)
Plasmodium falciparum [2]
  IC50: 0.629 ng/mL

## C[C@H]1[C@@H](O[C@H](C)CC(=O)O)O[C@@H]2O[C@]3(C)CC[C@H]4[C@H](C)CC[C@@H]1[C@@]24OO3
Plasmodium falciparum [6]
  IC50: 4.42 ng/mL
Plasmodium falciparum [7]
  IC50: 36.5 ng/mL

## COc1ccc(OC)c(COC2O[C@@H]3O[C@]4(C)CC[C@H]5[C@H](C)CC[C@H]([C@@]35OO4)[C@@]2(C)O)c1 (stereo partly drawn)
Plasmodium falciparum [3]
  IC50: 0.125 µM

## COC(=O)CCC(OC1O[C@@H]2O[C@]3(C)CC[C@H]4[C@H](C)CC[C@@H]([C@H]1C)[C@@]24OO3)c1ccc(Cl)cc1 (stereo partly drawn)
Plasmodium falciparum [1]
  IC50: 0.391 ng/mL (≈ 0.79 nM)
Plasmodium falciparum [2]
  IC50: 0.656 ng/mL

## C[C@H]1[C@@H](C(F)(F)F)O[C@@H]2O[C@]3(C)CC[C@H]4[C@H](C)CC[C@@H]1[C@@]24OO3
Plasmodium falciparum [2]
  IC50: 0.0062 µM

## CC[C@H]1O[C@@H]2O[C@]3(C)CC[C@H]4[C@H](C)CC[C@@H]([C@H]1C)[C@@]24OO3
Plasmodium falciparum [1]
  IC50: 1.09 ng/mL (≈ 3.68 nM)
Plasmodium falciparum [2]
  IC50: 0.29 ng/mL

## C[C@@H]1CC[C@H]2[C@@H](C)C(OC(=O)c3ccc([N+](=O)[O-])cc3)O[C@@H]3O[C@]4(C)CC[C@@H]1[C@]32OO4 (stereo partly drawn)
Plasmodium falciparum [3]
  IC50: 0.00854 µM

## CCO[C@H]1O[C@@H]2C[C@]3(C)CC[C@H]4[C@H](C)CC[C@@H]([C@H]1C)[C@@]24OO3
Plasmodium falciparum [9]
  IC50: 0.0128 µM

## C[C@@H]1CC[C@H]2[C@H](C[C@@]3(CCCCCCC4C(=O)O[C@@H]5O[C@]6(C)CC[C@H]7[C@H](C)CC[C@@H]4[C@@]57OO6)C(=O)O[C@@H]4O[C@]5(C)CC[C@H]6[C@H](C)CC[C@@H]3[C@@]46OO5)C(=O)O[C@@H]3O[C@]4(C)CC[C@@H]1[C@]32OO4 (stereo partly drawn)
Plasmodium falciparum [8]
  EC50: 0.0024 µM

## C[C@H]1[C@@H](OC[C@H](C)C(=O)O)O[C@@H]2O[C@]3(C)CC[C@H]4[C@H](C)CC[C@@H]1[C@@]24OO3
Plasmodium falciparum [6]
  IC50: 8.33 ng/mL
Plasmodium falciparum [7]
  IC50: 28.7 ng/mL

## C[C@@H]1CC[C@@H]2[C@]34OO[C@@](C)(CC[C@@H]13)O[C@H]4OC(OCc1ccc3c(c1)OCO3)[C@]2(C)O (stereo partly drawn)
Plasmodium falciparum [3]
  IC50: 0.11 µM

## C[C@@H]1CC[C@H]2[C@](C)(Br)[C@@H](Nc3nccs3)O[C@@H]3O[C@]4(C)CC[C@@H]1[C@]32OO4
Plasmodium falciparum [1]
  IC50: 0.91 ng/mL (≈ 2.04 nM)
Plasmodium falciparum [2]
  IC50: 0.21 ng/mL

## C[C@@H]1CC[C@H]2[C@](C)(Br)[C@@H](Nc3cccc(F)c3)O[C@@H]3O[C@]4(C)CC[C@@H]1[C@]32OO4
Plasmodium falciparum [1]
  IC50: 0.16 ng/mL (≈ 0.351 nM)
Plasmodium falciparum [2]
  IC50: < 0.16 ng/mL

## C[C@@H]1CC[C@H]2[C@@H](C)C(OC(=O)c3cccc4c3OCO4)O[C@@H]3O[C@]4(C)CC[C@@H]1[C@]32OO4 (stereo partly drawn)
Plasmodium falciparum [3]
  IC50: 0.00808 µM

## COC(=O)[C@H](C)CO[C@H]1O[C@@H]2O[C@]3(C)CC[C@H]4[C@H](C)CC[C@@H]([C@H]1C)[C@@]24OO3
Plasmodium falciparum [6]
  IC50: 0.057 ng/mL
Plasmodium falciparum [7]
  IC50: 2.15 ng/mL

## COC(=O)C[C@@H](C)O[C@H]1O[C@@H]2O[C@]3(C)CC[C@H]4[C@H](C)CC[C@@H]([C@H]1C)[C@@]24OO3
Plasmodium falciparum [6]
  IC50: 0.071 ng/mL
Plasmodium falciparum [7]
  IC50: 0.44 ng/mL

## C[C@@H]1CC[C@H]2[C@@H](C)C(O)O[C@@H]3C[C@]4(C)CC[C@@H]1[C@]32OO4 (stereo partly drawn)
Plasmodium falciparum [9]
  IC50: 0.69 ng/mL

## C[C@@H]1CC[C@H]2[C@](C)(Br)[C@@H](Nc3ccccn3)O[C@@H]3O[C@]4(C)CC[C@@H]1[C@]32OO4
Plasmodium falciparum [1]
  IC50: 7.72 ng/mL (≈ 17.6 nM)
Plasmodium falciparum [2]
  IC50: 1.19 ng/mL

## C[C@H]1[C@@H](O[C@@H]2O[C@H](CO)[C@@H](O[C@@H]3O[C@H](CO)[C@@H](O)[C@H](O)[C@H]3O)[C@H](O)[C@H]2O)O[C@@H]2O[C@]3(C)CC[C@H]4[C@H](C)CC[C@@H]1[C@@]24OO3
Plasmodium falciparum [6]
  IC50: 171 ng/mL
Plasmodium falciparum [7]
  IC50: 710 ng/mL
